Experimental data as given in ChEMBL document CHEMBL1201862, “PubChem BioAssay data set” (2004).
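Interpolation was linear, between the two tested concentrations surrounding the appropriate level; five concentrations were tested over 48 hours in 96-well plates. Here, GI50 denotes the concentration required for 50% inhibition of growth.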 Calls of active or inactive are those of the source. Rule as the data show it: active = GI50 up to about 1.1 µM and inactive = higher.

Experiments:
Assay in all cases: growth of human tumour cells (NCI), 48 h
[1] = test system: CCRF-CEM
[2] = test system: RXF 393
[3] = test system: UO-31
[4] = test system: K562
[5] = test system: COLO 205
[6] = test system: RPMI-8226
[7] = test system: A549
[8] = test system: T47D
[9] = test system: NCI-H226
[10] = test system: UACC-257
[11] = test system: HOP-62
[12] = test system: U-251
[13] = test system: IGROV-1
[14] = test system: NCI-H522
[15] = test system: MDA-N
[16] = test system: OVCAR-8
[17] = test system: SR
[18] = test system: NCI-H23
[19] = test system: SNB-19
[20] = test system: A498

Compound	GI50 [1]	GI50 [2]	GI50 [3]	GI50 [4]	GI50 [5]	GI50 [6]	GI50 [7]	GI50 [8]	GI50 [9]	GI50 [10]	GI50 [11]	GI50 [12]	GI50 [13]	GI50 [14]	GI50 [15]	GI50 [16]	GI50 [17]	GI50 [18]	GI50 [19]	GI50 [20]
COc1cccc(C2CC(=O)c3cc(N4CCCC4)ccc3N2)c1 (stereo not drawn)	0.0407 µM (active)	0.0177 µM (active)	0.0735 µM (active)	0.0237 µM (active)	0.0365 µM (active)	0.0492 µM (active)	0.036 µM (active)	56 µM (inactive)	0.0385 µM (active)	0.01 µM (active)	1.75 µM (inactive)	0.0248 µM (active)	0.045 µM (active)	0.0177 µM (active)	0.00269 µM (active)	0.037 µM (active)	0.0144 µM (active)	0.0265 µM (active)	0.0296 µM (active)	
CC(=O)N1C(Nc2cnc3ccccc3c2)CCN1c1ccccc1 (stereo not drawn)	> 10 µM (inactive)	> 10 µM (inactive)	> 10 µM (inactive)	6.58 µM (inactive)	> 10 µM (inactive)	> 10 µM (inactive)	> 10 µM (inactive)	> 10 µM (inactive)	> 10 µM (inactive)	> 10 µM (inactive)	> 10 µM (inactive)		> 10 µM (inactive)	> 10 µM (inactive)	> 10 µM (inactive)	> 10 µM (inactive)	> 10 µM (inactive)	> 10 µM (inactive)	> 10 µM (inactive)	
CC(O)/C=C/C1OC(=O)CC1Nc1ccc(C=O)cc1 (stereo not drawn)	15.8 µM (inactive)	> 100 µM (inactive)	51.2 µM (inactive)	41.5 µM (inactive)	42.9 µM (inactive)	24.2 µM (inactive)	> 100 µM (inactive)	60.7 µM (inactive)	> 100 µM (inactive)	48.2 µM (inactive)	20.9 µM (inactive)	77.6 µM (inactive)	91.2 µM (inactive)		> 100 µM (inactive)	> 100 µM (inactive)	23.1 µM (inactive)	59 µM (inactive)	> 100 µM (inactive)	> 100 µM (inactive)
CNC(=O)N(CCC#N)CCN(CCN(C(=O)NC)c1ccccc1)C(=O)NC	> 100 µM (inactive)	> 100 µM (inactive)	> 100 µM (inactive)	> 100 µM (inactive)	> 100 µM (inactive)	> 100 µM (inactive)	> 100 µM (inactive)	> 100 µM (inactive)	> 100 µM (inactive)	> 100 µM (inactive)	> 100 µM (inactive)	> 100 µM (inactive)	> 100 µM (inactive)	> 100 µM (inactive)	> 100 µM (inactive)	> 100 µM (inactive)	> 100 µM (inactive)	> 100 µM (inactive)	> 100 µM (inactive)	
CC1SCCc2nc3ccccc3n21 (stereo not drawn)	> 100 µM (inactive)	> 100 µM (inactive)	> 100 µM (inactive)	> 100 µM (inactive)	> 100 µM (inactive)	> 100 µM (inactive)	> 100 µM (inactive)	> 100 µM (inactive)	> 100 µM (inactive)	> 100 µM (inactive)	> 100 µM (inactive)	> 100 µM (inactive)	> 100 µM (inactive)		> 100 µM (inactive)	> 100 µM (inactive)	> 100 µM (inactive)	> 100 µM (inactive)	> 100 µM (inactive)	> 100 µM (inactive)
CC1=C(C(=O)OC(C)C)C(c2ccccc2C(F)(F)F)C(C(=O)OC(CO[N+](=O)[O-])CO[N+](=O)[O-])=C(C)N1 (stereo not drawn)	2.72 µM (inactive)	9.16 µM (inactive)	1.95 µM (inactive)	2.69 µM (inactive)	10.2 µM (inactive)	3.94 µM (inactive)	3.92 µM (inactive)	3.83 µM (inactive)	13.7 µM (inactive)	6.34 µM (inactive)	11 µM (inactive)	8.26 µM (inactive)	9.29 µM (inactive)	3.35 µM (inactive)	4.61 µM (inactive)	8.13 µM (inactive)	5 µM (inactive)	12.7 µM (inactive)	14.7 µM (inactive)	
CNC(=O)OCC1=C(COC(=O)NC)C(C)N(c2ccccc2)C1 (stereo not drawn)	37.2 µM (inactive)	28.4 µM (inactive)	22.9 µM (inactive)	26.7 µM (inactive)	21.2 µM (inactive)	24.6 µM (inactive)	48 µM (inactive)	26.7 µM (inactive)	11.3 µM (inactive)	35.6 µM (inactive)	53.6 µM (inactive)	31.8 µM (inactive)	26.2 µM (inactive)		33.8 µM (inactive)	36.6 µM (inactive)	24.5 µM (inactive)	38.1 µM (inactive)	58.5 µM (inactive)	3.05 µM (inactive)
C=C1[C@H](OC(=O)C(C)C)[C@@H](OC(C)=O)[C@@H](OC(C)=O)C(C)(C)[C@@H]2O[C@H]2[C@@H](C)C(=O)[C@@]2(OC(C)=O)C[C@@](C)(OC(C)=O)[C@H](OC(C)=O)[C@@H]2[C@H]1OC(C)=O	> 100 µM (inactive)		61.9 µM (inactive)	> 100 µM (inactive)	> 100 µM (inactive)	> 100 µM (inactive)	> 100 µM (inactive)	> 100 µM (inactive)	> 100 µM (inactive)	> 100 µM (inactive)	> 100 µM (inactive)	> 100 µM (inactive)	> 100 µM (inactive)	> 100 µM (inactive)	> 100 µM (inactive)	> 100 µM (inactive)	> 100 µM (inactive)	> 100 µM (inactive)	> 100 µM (inactive)	> 100 µM (inactive)
N=c1oc2cc(O)ccc2cc1C(=O)NCc1ccccc1	9.42 µM (inactive)	19.5 µM (inactive)	25.6 µM (inactive)	10.3 µM (inactive)	12.4 µM (inactive)	10.7 µM (inactive)	31.8 µM (inactive)	8.61 µM (inactive)	32.8 µM (inactive)	44.7 µM (inactive)	31.1 µM (inactive)	18.7 µM (inactive)	21.3 µM (inactive)	16.3 µM (inactive)	19.3 µM (inactive)	27.4 µM (inactive)	11.9 µM (inactive)	19.5 µM (inactive)	23.7 µM (inactive)	
Cc1nc2ccc(Br)cc2c(=O)n1-c1nnc(C(C)(C)C)s1	> 10 µM (inactive)	> 10 µM (inactive)	2 µM (inactive)	> 10 µM (inactive)	> 10 µM (inactive)	> 10 µM (inactive)	> 10 µM (inactive)	> 10 µM (inactive)	> 10 µM (inactive)	> 10 µM (inactive)	> 10 µM (inactive)	> 10 µM (inactive)	> 10 µM (inactive)	> 10 µM (inactive)	> 10 µM (inactive)	> 10 µM (inactive)	> 10 µM (inactive)	> 10 µM (inactive)	> 10 µM (inactive)	
Cc1ccc2c(c1)-c1c(C#N)c(N)nc(-c3ccc(Cl)cc3)c1CCS2(=O)=O	1.12 µM (active)		5.74 µM (inactive)	2.8 µM (inactive)	4.55 µM (inactive)	3.66 µM (inactive)	5.31 µM (inactive)	17.3 µM (inactive)	28.6 µM (inactive)	5.24 µM (inactive)	6.12 µM (inactive)	7.14 µM (inactive)	5.43 µM (inactive)	2.14 µM (inactive)	1.65 µM (inactive)	14.8 µM (inactive)	1.87 µM (inactive)	7.23 µM (inactive)	13.2 µM (inactive)	17.2 µM (inactive)
COc1cccc(CCCNC(=O)Cc2ccccc2CO)c1	> 100 µM (inactive)		> 100 µM (inactive)	> 100 µM (inactive)	> 100 µM (inactive)		> 100 µM (inactive)	38.1 µM (inactive)	> 100 µM (inactive)	> 100 µM (inactive)	> 100 µM (inactive)	> 100 µM (inactive)	> 100 µM (inactive)		> 100 µM (inactive)	> 100 µM (inactive)	> 100 µM (inactive)	> 100 µM (inactive)	> 100 µM (inactive)	> 100 µM (inactive)
CSc1ccc(/C=C2\N=C(c3ccccc3)N(c3nc4cc(Cl)c(F)cc4s3)C2=O)cc1	25 µM (inactive)	19.1 µM (inactive)	55.8 µM (inactive)	71.3 µM (inactive)	54.5 µM (inactive)	26.1 µM (inactive)	33.7 µM (inactive)	26.1 µM (inactive)		> 100 µM (inactive)	25.2 µM (inactive)	19.6 µM (inactive)	36.5 µM (inactive)		30.3 µM (inactive)	20 µM (inactive)	37.4 µM (inactive)		25.1 µM (inactive)	43.5 µM (inactive)
CC(C)(C)OC(=O)[N+](=N)C(=O)C1CCC(=O)N1C(=O)OCc1ccccc1 (stereo not drawn)	> 100 µM (inactive)	> 100 µM (inactive)	> 100 µM (inactive)	> 100 µM (inactive)	> 100 µM (inactive)	> 100 µM (inactive)	> 100 µM (inactive)	> 100 µM (inactive)	> 100 µM (inactive)		> 100 µM (inactive)	> 100 µM (inactive)	> 100 µM (inactive)	> 100 µM (inactive)	> 100 µM (inactive)	> 100 µM (inactive)	> 100 µM (inactive)	> 100 µM (inactive)	> 100 µM (inactive)	
O=C(O)c1cc2ccccc2c(/N=N/c2ccc(S(=O)(=O)Nc3nccs3)cc2)c1O	> 100 µM (inactive)	> 100 µM (inactive)	> 100 µM (inactive)	> 100 µM (inactive)	> 100 µM (inactive)	> 100 µM (inactive)	> 100 µM (inactive)	> 100 µM (inactive)	> 100 µM (inactive)	> 100 µM (inactive)	> 100 µM (inactive)	> 100 µM (inactive)	> 100 µM (inactive)	> 100 µM (inactive)	> 100 µM (inactive)	> 100 µM (inactive)	> 100 µM (inactive)	> 100 µM (inactive)		
